Measured values from ChEMBL document CHEMBL1140619.
Square brackets hold non-standard residues; d marks the D form. Peptide text beside a SMILES is read from it. * marks the point of attachment. Tyr(Nα,Nα-allyl2) = C=CCN(CC=C)[C@@H](Cc1ccc(O)cc1)C(=O)*; Aib = CC(C)(N)C(=O)O

Key:
[1] = target: Delta-type opioid receptor (Rattus norvegicus) (UniProt P33533); assay: Displacement of [3H]naltrindole from rat delta opioid receptor expressed in C6 cells; format: cell-based
[2] = target: Delta-type opioid receptor (Rattus norvegicus) (UniProt P33533); assay: Agonist activity at rat delta opioid receptor expressed in C6 cells assessed as stimulation of [35S]GTP-gamma-S binding relative to BW373U86; format: functional, cell-based

Sequence of Delta-type opioid receptor (Rattus norvegicus) (P33533 whole entry): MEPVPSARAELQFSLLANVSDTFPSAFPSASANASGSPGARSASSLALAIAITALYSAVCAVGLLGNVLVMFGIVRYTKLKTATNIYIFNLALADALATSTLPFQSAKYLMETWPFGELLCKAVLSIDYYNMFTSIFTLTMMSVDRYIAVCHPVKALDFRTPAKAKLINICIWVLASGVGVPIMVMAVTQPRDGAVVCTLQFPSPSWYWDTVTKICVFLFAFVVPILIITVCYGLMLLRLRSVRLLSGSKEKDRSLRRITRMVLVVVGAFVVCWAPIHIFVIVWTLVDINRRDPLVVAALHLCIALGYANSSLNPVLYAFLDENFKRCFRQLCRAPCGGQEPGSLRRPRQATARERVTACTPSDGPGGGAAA

## CN1CC[C@]23c4c5ccc(O)c4O[C@H]2c2[nH]c4ccccc4c2C[C@@]3(O)[C@H]1C5
[1]
  Activity: 6.5 nM
[2]
  Activity: 0.12

## CC(C)C[C@H](NC(=O)[C@H](Cc1ccccc1)NC(=O)CNC(=O)[C@@H](CO)NC(=O)[C@@H](N)Cc1ccc(O)cc1)C(=O)N[C@H](C(=O)O)[C@@H](C)O
[1]
  Activity: 93 nM
[2]
  Activity: 0.9

## C=CCN(CC=C)[C@@H](Cc1ccc(O)cc1)C(=O)NC(C)(C)C(=O)NC(C)(C)C(=O)N[C@@H](Cc1ccccc1)C(=O)N[C@@H](CC(C)C)C(=O)O ({Tyr(Nα,Nα-allyl2)}-[Aib][Aib]FL-OH)
[1]
  Activity: 37 nM
[2]
  Activity: 0

## Oc1ccc2c3c1O[C@H]1c4oc5ccccc5c4C[C@@]4(O)[C@@H](C2)N(CC2CC2)CC[C@]314
[1]
  Activity: 0.037 nM

## Oc1ccc2c3c1O[C@H]1c4[nH]c5ccccc5c4C[C@@]4(O)[C@@H](C2)N(CC2CC2)CC[C@]314
[2]
  Activity: 0

## CN1CC[C@]23c4c5ccc(O)c4O[C@H]2C(=O)C2(Cc4ccccc4C2)C[C@@]3(O)[C@H]1C5
[1]
  Activity: 8.4 nM
[2]
  Activity: 0.18

## C=CCN1C[C@H](C)N([C@H](c2ccc(C(=O)N(CC)CC)cc2)c2cccc(OC)c2)C[C@H]1C
[1]
  Activity: 60 nM
[2]
  Activity: 1.02

## CC(C)[C@H](NC(=O)[C@H](CC(=O)O)NC(=O)[C@H](Cc1ccccc1)NC(=O)[C@@H](C)NC(=O)[C@@H](N)Cc1ccc(O)cc1)C(=O)N[C@H](C(=O)NCC(N)=O)C(C)C
[1]
  Activity: 81 nM
[2]
  Activity: 0.59

## C=CCN1C[C@H](C)N([C@H](c2ccc(C(=O)N(CC)CC)cc2)c2cccc(O)c2)C[C@H]1C
[1]
  Activity: 0.45 nM

## CC1(C)SSC(C)(C)C(NC(=O)[C@@H](N)Cc2ccc(O)cc2)C(=O)NCC(=O)N[C@@H](Cc2ccc(Cl)cc2)C(=O)NC1C(=O)O (stereo in doubt)
[1]
  Activity: 135 nM
[2]
  Activity: 0.8

## O=C1/C(=C/c2ccccc2)C[C@@]2(O)[C@H]3Cc4ccc(O)c5c4[C@@]2(CCN3CC2CC2)[C@H]1O5
[1]
  Activity: 0.079 nM
